As a reminder, the inhibition is the drop in the measured response relative to a control, in per cent.

The values below come from publication PMC4890880 (ACS infectious diseases, 2016).

Where two headings read alike, the source gives them in different places.

Test [1] relates to HepG2-A16-CD81EGFP cells. The conditions noted are these: for IC50: read-out: Tox_IC50, HepG2 cytotoxicity.
Test [2] deals with HepG2-A16-CD81EGFP cells. Put plainly: cells. The conditions noted are these: Homo sapiens; for IC50: HepG2, read-out: Tox IC50; for inhibition at 50 µM: HepG2, read-out: Tox max inhibition (%) @ 50 uM.
Test [3] relates to Plasmodium berghei (Pb-Luc) exoerythrocytic-stage parasites. Put plainly: microbe, parasite or virus in culture. The following applies: for IC50: read-out: PbLuc IC50, dose response, 1/3 dilutions, max conc. 10 or 50 uM, unit inferred.
The mark [4] stands for this setting: sheet 2nd round, maximal inhibition in dose response.
[5] abbreviates: 2nd round, maximal inhibition in dose series.
The mark [6] stands for this setting: HepG2, read-out: HepG2 Tox% @ 50 uM rep1.
[7] abbreviates: read-out: Inhibition% @ 50 uM rep1.
[8] abbreviates: read-out: Inhibition% @ 50 uM rep2.
Setting [9] is: read-out: PbLuc max inhibition (%) @ 50 uM.

For `CO[C@@H]1CN(C)C(=O)c2ccc(NC(=O)Nc3ccccc3F)cc2OC[C@@H](C)N(Cc2ccccc2F)C[C@H]1C` [BRD-K00229958-001-01-0], the IC50 in the test on HepG2-A16-CD81EGFP cells [1] (sheet 2nd round) was above 10 µM. In the test on HepG2-A16-CD81EGFP cells [1] (setting [4]), the “Tox_max_inhibition (%)” value is on record as 7%.
`COc1ccccc1CN1C[C@@H](C)[C@H](OC)CN(C)C(=O)c2ccc(NC(=O)Nc3ccccc3OC)cc2OC[C@H]1C` [BRD-K01898236-001-01-5]: in the test on HepG2-A16-CD81EGFP cells [1] (setting [5]), the “Tox_max_inhibition (%)” value was determined as 9%. For the same molecule, in the test on HepG2-A16-CD81EGFP cells [1] (2nd round, unit inferred), the IC50 is above 10 µM.
`COc1ccc2c3c([nH]c2c1)[C@H](CO)N(C(C)=O)CC31CN(Cc2ccccc2Cl)C1` [BRD-K02242562-001-01-9]: in the test with HepG2-A16-CD81EGFP cells [1] (sheet 2nd round), the IC50 is above 10 µM. Besides, the “Tox_max_inhibition (%)” value in the test on HepG2-A16-CD81EGFP cells [1] (setting [4]) worked out at 3.51%.
Taken in the same sequence, the figures for `CCCN1C[C@H](C)[C@@H](OC)CN(C)C(=O)c2cc(NC(=O)Nc3cccc(F)c3)ccc2OC[C@H]1C` [BRD-K02315086-001-01-0] were above 10 µM and 10%.
On to `COc1ccc(S(=O)(=O)Nc2ccc3c(c2)C(=O)N([C@H](C)CO)C[C@@H](C)[C@H](CN(C)Cc2ccc(C(F)(F)F)cc2)OCCCC[C@@H](C)O3)cc1` [BRD-K02689416-001-01-9], for which, in the test with HepG2-A16-CD81EGFP cells [1] (sheet 2nd round), the IC50 is above 10 µM. In addition, in the test with HepG2-A16-CD81EGFP cells [1] (setting [4]), the “Tox_max_inhibition (%)” value is on record as 12%.
Turning to `COc1cccc(S(=O)(=O)N2CCCCN3[C@@H](CO)[C@@H](c4ccc(C#CCC(C)C)cc4)[C@@H]3C2)c1` [BRD-K03006541-001-01-3], in the test on HepG2-A16-CD81EGFP cells [1] (sheet "2nd round"), the IC50 was above 10 µM and the “Tox_max_inhibition (%)” value amounted to 5%.
Take `COc1cccc(-c2cccc(-c3nc(C(=O)NCc4ccc(Oc5ccccc5)cc4)cc4c3[C@@H](CCO)N([S+]([O-])C(C)(C)C)C4)c2)c1` (stereo partly shown) [BRD-K03403405-001-03-3]: the IC50 with HepG2-A16-CD81EGFP cells [1] (sheet 2nd round) was above 10 µM. In the test with HepG2-A16-CD81EGFP cells [1] (setting [4]), the “Tox_max_inhibition (%)” value is recorded as 6%.
Taken in the same sequence, the figures for `COc1ccc(C#Cc2ccc3c(c2)O[C@@H](CN(C)C(=O)Nc2cccc(OC)c2)[C@@H](C)CN([C@H](C)CO)S3(=O)=O)cc1` [BRD-K04089243-001-01-9] were above 10 µM and 2.28%.
In the same order, the values of `C[C@@H]1CN([C@H](C)CO)C(=O)c2c(c3ccccc3n2C)-c2ccccc2CO[C@@H]1CN(C)S(=O)(=O)c1ccc([N+](=O)[O-])cc1` [BRD-K04605557-001-01-2] are above 10 µM and 13%.
Consider `CS(=O)(=O)N1[C@H](C#N)[C@H](c2ccc(C#Cc3cccc(F)c3)cc2)[C@H]1CO` [BRD-K05470326-001-01-0], for which, in the test on HepG2-A16-CD81EGFP cells [1] (sheet "2nd round"), the IC50 is above 10 µM and the “Tox_max_inhibition (%)” value was 10%.
Taken in the same sequence, the figures for `C[C@@H]1CCCCO[C@H](CN(C)S(=O)(=O)c2ccccc2)[C@@H](C)CN([C@H](C)CO)C(=O)c2cc(NC(=O)Nc3ccc4c(c3)OCO4)ccc2O1` [BRD-K06373569-001-01-1] were above 10 µM and 14%.
Taken in the same sequence, the figures for `COc1ccc2c3c(n(C)c2c1)[C@@H](CO)N(Cc1ccc2c(c1)OCO2)CC31CN(C(=O)c2ccc3c(c2)OCO3)C1` [BRD-K07064121-001-01-6] were above 10 µM and 18%.
Taken in the same sequence, the figures for `COc1ccc2c3c([nH]c2c1)[C@H](CO)N(C(C)=O)CC31CCN(C(=O)Nc2ccc(F)cc2F)CC1` [BRD-K07378992-001-01-6] were above 10 µM and 7%.
For the molecule `CCCNC(=O)N1[C@H](CO)[C@H](c2ccc(C#Cc3cccc(F)c3)cc2)[C@@H]1C#N` [BRD-K10089781-004-02-1], the IC50 with HepG2-A16-CD81EGFP cells [1] (sheet 2nd round) is above 10 µM. Besides, in the test with HepG2-A16-CD81EGFP cells [1] (setting [4]), the “Tox_max_inhibition (%)” value amounted to 13%.
Taken in the same sequence, the figures for `C[C@H](CO)N1C[C@H](C)[C@H](CN(C)S(=O)(=O)c2ccc(C(F)(F)F)cc2)OCc2ccccc2-c2c(n(C)c3ccccc23)C1=O` [BRD-K10380905-001-01-3] were above 10 µM and 20%.
`C/C=C/c1ccc([C@H]2[C@@H](CO)N(C(=O)Nc3ccccc3F)[C@H]2C#N)cc1` [BRD-K12121340-001-01-2]: in the test on HepG2-A16-CD81EGFP cells [1] (setting [5]), the “Tox_max_inhibition (%)” value is 9%. Moreover, the IC50 with HepG2-A16-CD81EGFP cells [1] (2nd round, unit inferred) was above 10 µM.
As for `COc1ccc(C(=O)N2C[C@@H]3[C@H](c4ccccc42)[C@H](CO)N3C(=O)Cc2ccccn2)cc1` [BRD-K13582094-001-01-2], the IC50 with HepG2-A16-CD81EGFP cells [1] (sheet 2nd round) was above 10 µM. Also, the “Tox_max_inhibition (%)” value in the test with HepG2-A16-CD81EGFP cells [1] (setting [4]) worked out at 4%.
As for `CC(C)(C)[S@+]([O-])N1Cc2cc(C(=O)NCC(F)(F)F)nc(-c3cccc(-c4cccc(F)c4)c3)c2[C@@H]1CCO` [BRD-K14002526-001-01-8], in the test on HepG2-A16-CD81EGFP cells [1] (sheet "2nd round"), the IC50 was above 10 µM and the “Tox_max_inhibition (%)” value amounted to 37%.
In the same order, the values of `COc1ccc(-c2ccc([C@H]3[C@@H](C#N)N(C(=O)NC(C)C)[C@H]3CO)cc2)cc1` [BRD-K15519105-001-01-9] are above 10 µM and 38%.
Turning to `COc1ccccc1NC(=O)N1C[C@@H]2N[C@H](C1)C2c1ccc(/C=C/c2ccccc2)cc1` (stereo partly shown) [BRD-K16425675-019-01-0], in the test with HepG2-A16-CD81EGFP cells [1] (sheet 2nd round), the IC50 was above 10 µM. In addition, the “Tox_max_inhibition (%)” value in the test on HepG2-A16-CD81EGFP cells [1] (setting [4]) came to 9%.
Regarding `O=C(C[C@@H]1C[C@@H]2c3cc(NC(=O)c4ccc5c(c4)OCO5)ccc3O[C@@H]2[C@@H](CO)O1)NCc1ccc(Oc2ccccc2)cc1` [BRD-K16956545-001-01-0], in the test with HepG2-A16-CD81EGFP cells [1] (sheet "2nd round"), the IC50 is above 10 µM and the “Tox_max_inhibition (%)” value stood at 5%.
For `CS(=O)(=O)N1C[C@@H]2N[C@H](C1)C2c1ccc(-c2ccccc2)cc1` (stereo partly shown) [BRD-K16971439-019-01-0], the IC50 with HepG2-A16-CD81EGFP cells [1] (sheet 2nd round) is above 10 µM. The “Tox_max_inhibition (%)” value in the test on HepG2-A16-CD81EGFP cells [1] (setting [4]) was 5%.
For `CN1c2ccc(C#Cc3cccnc3)cc2[C@@H]2[C@@H](CCN2C(=O)c2cccc(F)c2)[C@@H]1CO` [BRD-K18296007-001-01-0], in the test on HepG2-A16-CD81EGFP cells [1] (setting [5]), the “Tox_max_inhibition (%)” value turned out to be 14%. For the same molecule, the IC50 in the test on HepG2-A16-CD81EGFP cells [1] (2nd round, unit inferred) was above 10 µM.
`Cc1cc(C=C2SC(=Nc3ccccc3)N(C3CCCC3)C2=O)c(C)n1-c1ccc(Cl)cc1` [MMV666688]: the cytotoxicity at 50 µM is -4.47% in the test on HepG2-A16-CD81EGFP cells [2] (setting [6]) and -11% in the test on HepG2-A16-CD81EGFP cells [2] (HepG2, read-out: HepG2 Tox% @ 50 uM rep2). Moreover, the values for the inhibition at 50 µM in test [3] (setting [7]) and in test [3] (setting [8]) were 14% and 0.839%, respectively.
With `COc1ccc(Nc2nc(NN=Cc3ccc(O)cc3)nc(Nc3ccc([N+](=O)[O-])cc3)n2)cc1` [MMV666689], in the test on HepG2-A16-CD81EGFP cells [2] (setting [6]), the cytotoxicity at 50 µM worked out at 97%. The IC50 came out at 46.8 µM in the test with HepG2-A16-CD81EGFP cells [2] and 15.9 µM in test [3]. Moreover, the inhibition at 50 µM with HepG2-A16-CD81EGFP cells [2] is 73%; in test [3] (setting [7]) it was 98%; in test [3] (setting [8]) it was 98%; in test [3] (setting [9]), 95%.
Regarding `COc1ccc(CCn2c(=N)c(C(=O)NCc3cccnc3)cc3c(=O)n4cccc(C)c4nc32)cc1` [MMV667488], the cytotoxicity at 50 µM with HepG2-A16-CD81EGFP cells [2] (setting [6]) was -0.0644%. In addition, the inhibition at 50 µM was 81% in test [3] (setting [7]) and 83% in test [3] (setting [8]).
For the molecule `COc1ccc(C2c3ccc4ccccc4c3Oc3ncn(CCCn4ccnc4)c(=N)c32)cc1OC` (stereo not shown) [MMV667490], in the test on HepG2-A16-CD81EGFP cells [2] (setting [6]), the cytotoxicity at 50 µM stood at 102%. In addition, the inhibition at 50 µM in test [3] (setting [7]) and in test [3] (setting [8]) was 104% throughout.
For `COc1ccc(C2c3ccc4ccccc4c3Oc3ncn(CCCN(C)C)c(=N)c32)cc1` (stereo not shown) [MMV667491], the cytotoxicity at 50 µM in the test on HepG2-A16-CD81EGFP cells [2] (setting [6]) came out at 99%. The IC50 in the test on HepG2-A16-CD81EGFP cells [2] was found to be 10.7 µM; in test [3] it was 4 µM. Moreover, the inhibition at 50 µM is 93% in the test on HepG2-A16-CD81EGFP cells [2], 103% in test [3] (setting [7]), 103% in test [3] (setting [8]) and 94% in test [3] (setting [9]).
Take `CN(N=O)C1=C(NC2CCCCC2)C(=O)c2ccccc2C1=O` [MMV667492]: in the test on HepG2-A16-CD81EGFP cells [2] (setting [6]), the cytotoxicity at 50 µM was determined as 98%. Moreover, the inhibition at 50 µM in test [3] (setting [7]) is 103%; in test [3] (setting [8]), 104%.
